Experimental data taken from paper PMC4170656 (Developmental cell, 2014).
Numbering of substitutions follows the chain as printed.

Legend:
Assay type in all cases: binding
[1] = target: T1, His:AKR2A (full-length AKR2A) (Arabidopsis thaliana, UniProt Q9SAR5); experiment: SPR, lipid vesicles on L1 chip; settings: POPG/POPC/MGDG [50:(50−x):x] vesicles; pH 7.4, 0.16 M NaCl, 23°C
T1 sequence (Q9SAR5 1-342): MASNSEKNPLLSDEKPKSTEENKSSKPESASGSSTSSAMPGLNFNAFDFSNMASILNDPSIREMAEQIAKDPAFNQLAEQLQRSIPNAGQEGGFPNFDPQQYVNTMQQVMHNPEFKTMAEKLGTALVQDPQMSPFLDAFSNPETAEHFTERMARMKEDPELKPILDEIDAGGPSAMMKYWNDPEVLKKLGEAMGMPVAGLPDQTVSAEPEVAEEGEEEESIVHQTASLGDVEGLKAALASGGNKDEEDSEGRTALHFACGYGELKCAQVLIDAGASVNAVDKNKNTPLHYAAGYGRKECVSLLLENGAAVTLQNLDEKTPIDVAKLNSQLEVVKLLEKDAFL

[2] = target: T2, His:ARD (ankyrin repeat domain of AKR2A) (Arabidopsis thaliana, UniProt Q9SAR5, Y294A); experiment: SPR sensorgrams, lipid vesicles on L1 chip; settings: POPG/POPC (50:50) vesicles; pH 7.4, 0.16 M NaCl, 23°C; L2 site
T2 sequence (Q9SAR5 211-342 Y294A): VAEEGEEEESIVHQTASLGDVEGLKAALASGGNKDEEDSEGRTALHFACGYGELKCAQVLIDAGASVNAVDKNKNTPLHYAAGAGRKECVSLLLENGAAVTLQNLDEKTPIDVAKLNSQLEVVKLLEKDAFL

[3] = target: T3, His:ARD (ankyrin repeat domain of AKR2A) (Arabidopsis thaliana, UniProt Q9SAR5, N314A); experiment: SPR sensorgrams, lipid vesicles on L1 chip; settings: POPG/POPC (50:50) vesicles; pH 7.4, 0.16 M NaCl, 23°C; L3 site
T3 sequence (Q9SAR5 211-342 N314A): T2 sequence (Q9SAR5 211-342 Y294A) with A84Y, N104A

[4] = target: T4, His:ARD (ankyrin repeat domain of AKR2A) (Arabidopsis thaliana, UniProt Q9SAR5, E246A); experiment: SPR sensorgrams, lipid vesicles on L1 chip; settings: POPG/POPC (50:50) vesicles; pH 7.4, 0.16 M NaCl, 23°C; L1 site
T4 sequence (Q9SAR5 211-342 E246A): T2 sequence (Q9SAR5 211-342 Y294A) with E36A, A84Y

[5] = target: T5, His:ARD (ankyrin repeat domain of AKR2A) (Arabidopsis thaliana, UniProt Q9SAR5, R296A); experiment: SPR sensorgrams, lipid vesicles on L1 chip; settings: POPG/POPC (50:50) vesicles; pH 7.4, 0.16 M NaCl, 23°C; L2 site
T5 sequence (Q9SAR5 211-342 R296A): T2 sequence (Q9SAR5 211-342 Y294A) with A84Y, R86A

[6] = target: T6, His:ARD (ankyrin repeat domain of AKR2A) (Arabidopsis thaliana, UniProt Q9SAR5, H223A); experiment: SPR sensorgrams, lipid vesicles on L1 chip; settings: POPG/POPC (50:50) vesicles; pH 7.4, 0.16 M NaCl, 23°C; L1 site
T6 sequence (Q9SAR5 211-342 H223A): T2 sequence (Q9SAR5 211-342 Y294A) with H13A, A84Y

[7] = target: T7, His:ARD (ankyrin repeat domain of AKR2A) (Arabidopsis thaliana, UniProt Q9SAR5, L315A); experiment: SPR sensorgrams, lipid vesicles on L1 chip; settings: POPG/POPC (50:50) vesicles; pH 7.4, 0.16 M NaCl, 23°C; L3 site
T7 sequence (Q9SAR5 211-342 L315A): T2 sequence (Q9SAR5 211-342 Y294A) with A84Y, L105A

SMILES: CCCCCCCC/C=C\CCCCCCCC(=O)O[C@H](COC(=O)CCCCCCCCCCCCCCC)COP(=O)(O)OCC(O)CO (stereo partly shown) [POPG]
- SPR, lipid vesicles on L1 chip [1]: MGDG-dependent vesicle binding of full-length (FL) AKR2A (red) and ARD (blue)
- SPR sensorgrams, lipid vesicles on L1 chip [2]: the L2 site mutants (Y294A and R296A) showed significantly lower binding than WT
- SPR sensorgrams, lipid vesicles on L1 chip [3]: the L3 site mutants (N314A and L315A) showed only modestly reduced binding
- SPR sensorgrams, lipid vesicles on L1 chip [4]: The L1 site mutants H223A and E246A also had a significantly lower binding affinity
- SPR sensorgrams, lipid vesicles on L1 chip [5]: the L2 site mutants (Y294A and R296A) showed significantly lower binding than WT
- SPR sensorgrams, lipid vesicles on L1 chip [6]: The L1 site mutants H223A and E246A also had a significantly lower binding affinity
- SPR sensorgrams, lipid vesicles on L1 chip [7]: the L3 site mutants (N314A and L315A) showed only modestly reduced binding
